The values below come from patent US6653298B2, “Composition” (Sterix Limited, priority 2000, dated 2003).

Where only a bound is given, the exact number is not on record here.

Data set [1] has as its system Meth A sarcoma, B16 melanoma or MDA-MB-435 estrogen receptor negative (ER−) breast cancer cells. The conditions noted are these: subcutaneous injection of Meth A sarcoma, B16 melanoma or MDA-MB-435 cells; cited from earlier work.
The subject of the next data set is endothelial cell. The conditions noted are these: cited from earlier work.
The test system of a further data set is angiogenesis. The conditions noted are these: cited from earlier work.
Another data set concerns microtubule. The conditions noted are these: at high concentrations; cited from earlier work.
In the next data set the test system is tubulin. The conditions noted are these: at high concentrations; cited from earlier work.
For data set [2], the target named is T1, E1-STS (Homo sapiens, UniProt P08842).
T1 sequence (P08842 22-583): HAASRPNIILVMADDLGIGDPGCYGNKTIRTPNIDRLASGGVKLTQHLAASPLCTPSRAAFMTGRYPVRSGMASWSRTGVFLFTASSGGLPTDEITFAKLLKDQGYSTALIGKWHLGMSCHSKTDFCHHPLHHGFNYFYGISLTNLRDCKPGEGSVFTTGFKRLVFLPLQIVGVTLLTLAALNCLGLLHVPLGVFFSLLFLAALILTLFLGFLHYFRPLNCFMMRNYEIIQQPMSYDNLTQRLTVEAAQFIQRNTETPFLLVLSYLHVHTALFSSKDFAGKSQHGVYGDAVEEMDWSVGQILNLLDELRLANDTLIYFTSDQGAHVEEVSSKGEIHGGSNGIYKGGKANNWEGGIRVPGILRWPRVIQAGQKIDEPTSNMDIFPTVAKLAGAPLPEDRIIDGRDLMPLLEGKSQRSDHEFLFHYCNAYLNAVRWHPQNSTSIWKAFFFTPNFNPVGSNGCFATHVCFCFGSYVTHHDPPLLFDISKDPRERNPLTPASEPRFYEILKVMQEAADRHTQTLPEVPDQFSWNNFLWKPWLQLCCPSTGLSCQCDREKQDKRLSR
The conditions noted are these: cited from earlier work.

In another data set the test system is uterine growth. The conditions noted are these: cited from earlier work.
The target of data set [3] is T2, dehydroepiandrosterone sulphatase (DHA-STS) (Homo sapiens, UniProt P08842).
T2 sequence (P08842 22-583): T1 sequence (P08842 22-583)
The conditions noted are these: cited from earlier work.

In another data set the target is T3, rat liver DHA-STS (Rattus norvegicus, UniProt P15589).
T3 construct: samples of liver tissue were obtained and oestrone sulphatase activity assayed; from tissue; host or cells: rat liver (after in vivo dosing)
T3 sequence (P15589 20-577): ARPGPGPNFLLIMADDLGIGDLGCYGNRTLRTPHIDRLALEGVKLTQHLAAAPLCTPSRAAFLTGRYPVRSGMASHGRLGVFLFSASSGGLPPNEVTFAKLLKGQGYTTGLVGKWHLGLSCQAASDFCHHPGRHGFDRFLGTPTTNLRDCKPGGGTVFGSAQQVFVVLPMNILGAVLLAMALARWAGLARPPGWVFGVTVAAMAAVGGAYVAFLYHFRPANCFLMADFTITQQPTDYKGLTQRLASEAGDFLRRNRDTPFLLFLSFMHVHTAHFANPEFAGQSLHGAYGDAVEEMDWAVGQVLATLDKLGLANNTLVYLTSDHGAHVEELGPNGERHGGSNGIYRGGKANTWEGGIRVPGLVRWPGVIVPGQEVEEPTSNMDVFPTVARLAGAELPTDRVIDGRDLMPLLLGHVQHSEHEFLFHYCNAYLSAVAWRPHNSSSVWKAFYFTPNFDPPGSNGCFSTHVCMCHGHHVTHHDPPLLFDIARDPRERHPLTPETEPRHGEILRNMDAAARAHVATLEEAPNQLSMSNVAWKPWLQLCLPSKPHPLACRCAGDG
The conditions noted are these: in vivo, administered either orally or subcutaneously; cited from earlier work.

The conditions of data set [4]: rats; cited from earlier work.
For data set [5], the target named is T1, E1-STS. Further details: endogenous in cells; host or cells: MCF-7; dose or concentration left out as unconfirmed. The conditions noted are these: intact MCF-7 cells; cited from earlier work.
A short description of data set [6]: Distribution of compound in blood (erythrocyte binding).
For data set [7], the system named is estrogen receptor. The data set is described as follows: In vitro estrogen receptor binding / displacement of radiolabelled oestradiol. The method, then: (§1) Oestradiol Sulfamate (J995) was investigated with respect to its hormonal properties in vitro and in vivo. In vitro studies included the evaluation of its specific binding to oestrogen receptors using cytosolic preparations of uterine tissue of rats and mice and MCF-7 tumor cells. In vivo studies were performed on several animal species including intact and ovariectomised rats and cynomolgus monkeys. These species served for detailed pharmacodynamic and pharmacokinetic studies at parenteral and oral administration of the compound.

The target of data set [8] is T4, estrogen receptor (Mus musculus, UniProt P19785).
T4 construct: using cytosolic preparations of uterine tissue of rats and mice and MCF-7 tumor cells; from tissue; host or cells: mouse uterine cytosol
T4 sequence (P19785 1-599): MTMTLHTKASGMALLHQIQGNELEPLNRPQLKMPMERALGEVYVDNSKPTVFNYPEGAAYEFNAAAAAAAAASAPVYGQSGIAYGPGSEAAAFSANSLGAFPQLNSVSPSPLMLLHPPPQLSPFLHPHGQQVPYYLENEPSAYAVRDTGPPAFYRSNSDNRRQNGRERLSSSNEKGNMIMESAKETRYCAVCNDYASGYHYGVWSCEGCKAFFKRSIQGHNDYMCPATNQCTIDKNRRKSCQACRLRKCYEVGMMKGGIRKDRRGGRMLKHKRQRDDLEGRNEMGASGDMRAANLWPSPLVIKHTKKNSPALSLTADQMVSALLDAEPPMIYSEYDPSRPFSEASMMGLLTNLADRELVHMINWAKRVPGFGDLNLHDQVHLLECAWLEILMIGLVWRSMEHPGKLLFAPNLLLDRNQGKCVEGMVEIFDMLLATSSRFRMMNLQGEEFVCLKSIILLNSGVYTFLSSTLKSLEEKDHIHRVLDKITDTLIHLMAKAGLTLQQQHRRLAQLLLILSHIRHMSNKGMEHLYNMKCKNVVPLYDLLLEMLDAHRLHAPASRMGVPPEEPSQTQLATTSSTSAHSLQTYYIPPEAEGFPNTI
The data set is described as follows: Specific binding of radiolabelled J995 to estrogen receptor of mice. As for the experimental part: as §1

The target in data set [9] is T5, estrogen receptor (Rattus norvegicus, UniProt P06211).
T5 construct: using cytosolic preparations of uterine tissue of rats and mice and MCF-7 tumor cells; from tissue; host or cells: rat uterine cytosol
T5 sequence (P06211 1-600): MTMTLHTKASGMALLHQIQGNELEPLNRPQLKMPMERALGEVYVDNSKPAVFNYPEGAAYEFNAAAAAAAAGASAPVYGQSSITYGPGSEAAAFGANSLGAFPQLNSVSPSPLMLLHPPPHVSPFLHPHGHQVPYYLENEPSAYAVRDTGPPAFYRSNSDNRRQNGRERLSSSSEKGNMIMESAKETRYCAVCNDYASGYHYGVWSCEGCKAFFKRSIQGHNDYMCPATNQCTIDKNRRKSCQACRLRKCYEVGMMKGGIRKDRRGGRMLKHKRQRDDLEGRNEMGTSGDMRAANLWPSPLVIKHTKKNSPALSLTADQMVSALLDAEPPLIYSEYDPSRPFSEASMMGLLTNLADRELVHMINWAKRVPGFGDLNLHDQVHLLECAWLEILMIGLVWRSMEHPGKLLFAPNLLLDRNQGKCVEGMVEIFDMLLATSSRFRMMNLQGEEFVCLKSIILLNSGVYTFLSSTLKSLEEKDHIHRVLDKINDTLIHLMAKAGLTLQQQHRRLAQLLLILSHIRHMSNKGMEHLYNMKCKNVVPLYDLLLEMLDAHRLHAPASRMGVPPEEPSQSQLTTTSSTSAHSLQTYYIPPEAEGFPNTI
The data set is described as follows: Specific binding of radiolabelled J995 to estrogen receptor of rats. The method, then:
as §1

For data set [10], the target named is T6, estrogen receptor (Homo sapiens, UniProt P03372).
T6 construct: using cytosolic preparations of uterine tissue of rats and mice and MCF-7 tumor cells; endogenous in cells; host or cells: MCF-7 cytosol
T6 sequence (P03372 1-595): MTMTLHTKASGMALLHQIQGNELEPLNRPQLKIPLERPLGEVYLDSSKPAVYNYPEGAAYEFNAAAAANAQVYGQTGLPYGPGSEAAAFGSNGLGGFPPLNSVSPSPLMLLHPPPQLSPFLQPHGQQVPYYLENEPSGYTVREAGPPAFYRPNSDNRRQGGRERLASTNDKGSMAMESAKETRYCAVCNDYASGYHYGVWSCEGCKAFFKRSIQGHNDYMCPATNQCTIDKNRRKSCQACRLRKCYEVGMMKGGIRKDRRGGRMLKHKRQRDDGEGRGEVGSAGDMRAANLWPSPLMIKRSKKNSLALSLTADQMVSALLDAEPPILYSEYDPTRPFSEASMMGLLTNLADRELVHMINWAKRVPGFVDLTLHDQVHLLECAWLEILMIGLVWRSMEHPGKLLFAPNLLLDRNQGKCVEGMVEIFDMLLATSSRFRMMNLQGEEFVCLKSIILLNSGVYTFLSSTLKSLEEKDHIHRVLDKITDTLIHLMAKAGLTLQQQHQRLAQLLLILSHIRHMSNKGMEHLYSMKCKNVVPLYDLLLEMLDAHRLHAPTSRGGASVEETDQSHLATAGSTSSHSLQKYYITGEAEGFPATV
The data set is described as follows: Specific binding of radiolabelled J995 to human estrogen receptor. As for the experimental part:
as §1

A short description of data set [11]: Clinical pharmacokinetics after oral administration in postmenopausal women. Type of data set: in vivo, human. The method, then: Studies in the human were performed with oral administration of the compound in postmenopausal women. Several doses at single and multiple administration were evaluated. […] studies were performed with solutions in oily vehicles for parenteral administration. Oral treatment was performed with suspensions of cristalline J995 in aquaeous vehicle. Clinical studies were performed with amorphous drug substance galenically formulated with a mixture of conventional ingredients as capsules or tablets.

[12] abbreviates: single oral dose of 0.5 mg, FIG. 11.
The mark [13] stands for this setting: single oral dose of 0.5 mg, over 5 days, FIG. 11.

Take `COc1cc2c(cc1O)CC[C@@H]1[C@@H]2CC[C@]2(C)[C@@H](O)CC[C@@H]12` [2-MeOE2, 2-methoxyoestradiol]: the “growth of tumours in vivo” value in data set [1] was “inhibits the growth of tumours”. For the same molecule, in the data set with endothelial cell, the “endothelial cell proliferation and migration” value is “inhibits endothelial cell proliferation and migration”. In the data set with angiogenesis, the in vitro angiogenesis result is reported as “inhibits”. Moreover, the microtubule polymerisation result in the data set with microtubule was “can inhibit microtubule polymerisation”. The “inhibition of colchicine binding to tubulin” value in the data set with tubulin is listed as “weak inhibitor of colchicine binding to tubulin”.
`COc1cc2c(cc1OS(N)(=O)=O)CC[C@@H]1[C@@H]2CC[C@]2(C)C(=O)CC[C@@H]12` [2-methoxyoestrone-3-O-sulphamate, reference compound]: the “potency as steroid sulphatase inhibitor relative to EMATE” value on E1-STS [2] is “equipotent with EMATE”. The oestrogenicity result in the data set with uterine growth (rat, in vivo) is listed as “devoid of oestrogenicity”.
In the case of `CC12CCC3c4ccc(OS(N)(=O)=O)cc4CCC3C1CCC2=O` (stereo not shown) [EMATE, oestrone-3-O-sulphamate], the “manner of inhibition of the E1-STS enzyme” value at E1-STS [2] is “time- and concentration-dependent manner”. The “inhibition of DHA-STS” value in data set [3] is on record as “inhibits dehydroepiandrosterone sulphatase”. Further, the “inhibition of rat liver DHA-STS activity” value at rat liver DHA-STS was 99%. Besides, the effect on memory entry in data set [4] was “memory enhancing effect”. In addition, the “oral uterotrophic activity relative to estradiol” value with uterine growth (rats, oral) is 100 times. The “inhibition of E1-STS activity” value at E1-STS [5] was “more than 99%”.
As for `C[C@]12CC[C@@H]3c4ccc(OS(N)(=O)=O)cc4CC[C@H]3[C@@H]1CC[C@@H]2O` [J995, oestradiol-3-sulphamate], in [6], the “amount circulating in the erythrocyte compartment” value was 98-99%. In the data set on estrogen receptor [7] (huge excess of J995), the “displacement of specifically bound radioactively labelled Oestradiol” value is recorded as “unable to displace specifically bound radioactively labelled Oestradiol”. In addition, the “affinity to the estrogen receptor” value with estrogen receptor [7] (in vitro) is “no affinity to the estrogen receptor”. Besides, the “specific binding of radioactively labelled compound to estrogen receptor” value (“specific binding” for short) on estrogen receptor [8] was “no specific binding”. At estrogen receptor [9], the “specific binding” value is “no specific binding”. In addition, the “specific binding” value on estrogen receptor [10] is on record as “no specific binding”. For the same molecule, in data set [11] (FIG. 5: single oral 2 mg J995 vs multiple doses 2 mg E2V), the “factor by which metabolite oestrone sulphate stays lower than under Oestradiol Valerate treatment” value was at least 10. In addition, the “constancy of blood levels of oestrogens” value in [11] (FIGS. 5-10) was “very constant, long lasting blood levels”. The “oestradiol levels compared with Oestradiol Valerate at the same dose” value in data set [11] (FIGS. 6, 7) was “higher and much longer lasting oestradiol levels”. For the same molecule, the “oestrone sulphate levels in wash out phase” value in data set [11] (after 14 days of 100 μg per day, wash out phase over 144 hours, FIG. 9) is “almost constant oestrone sulphate levels”. In addition, the “orally administered compound reaching the erythrocyte pool” value in data set [11] (oral) is given as about 100%. For the same molecule, the “prodrug appearing as oestrone and oestradiol in the circulation” value in [11] (oral, FIG. 11) is on record as “more than 50%”. Moreover, in data set [11] (setting [12]), the “total ES amount in blood” value is reported as “≈ 500 μg/5 L blood”, the “total ES concentration per blood volume” value was about 100 μg/L blood and the “total ES erythrocyte conc.” value is “Ca. 200 ng/mL erythrocytes”. In data set [11] (setting [13]), the E1S plasma level stood at 700 pg/mL and the E1 plasma level turned out to be 40 pg/mL. Further, the “Clearance of E1S calculated (amount)” value in [11] (single oral dose of 0.5 mg, 110 l×700 ng/l/day) is listed as 385 μg/5 days. For the same molecule, the “Clearance of E1 calculated (amount)” value in data set [11] (single oral dose of 0.5 mg, 1870 l×40 ng/l/day) was 374 μg/5 days.
With oestrone-3-N-sulphamate, the “manner of inhibition of the E1-STS enzyme” value on E1-STS [2] is “weaker non-time-dependent inactivators”.
Regarding oestrone-3-S-sulphamate, on E1-STS [2], the “manner of inhibition of the E1-STS enzyme” value is recorded as “weaker non-time-dependent inactivators”.
